Measured values published in PubChem BioAssay (NCI).
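Protocol summary: plate cells (96-well), add compound at 5 concentrations, incubate 48 h, interpolate endpoints linearly. TGI denotes the concentration required for complete inhibition of growth.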

What was measured:
Experiment in all cases: NCI anticancer screen, dose series, 48 h
RPMI-8226 leukemia = tested on: RPMI-8226 leukemia
MDA-MB-231 breast = tested on: MDA-MB-231 breast
HCC-2998 colon = tested on: HCC-2998 colon
TK-10 renal = tested on: TK-10 renal
IGROV1 ovarian = tested on: IGROV1 ovarian
HS 578T breast = tested on: HS 578T breast
A498 renal = tested on: A498 renal
A549 NSCLC = tested on: A549 NSCLC
NCI-H23 lung = tested on: NCI-H23 lung
ACHN renal = tested on: ACHN renal
HL-60(TB) leukemia = tested on: HL-60(TB) leukemia
MDA-MB-435 = tested on: MDA-MB-435
MDA-N = tested on: MDA-N
SF-295 CNS = tested on: SF-295 CNS
OVCAR-8 ovarian = tested on: OVCAR-8 ovarian
RXF 393 renal = tested on: RXF 393 renal
SW-620 colon = tested on: SW-620 colon
UO-31 renal = tested on: UO-31 renal
HCT-15 colon = tested on: HCT-15 colon
SF-268 CNS = tested on: SF-268 CNS
HOP-92 NSCLC = tested on: HOP-92 NSCLC
LOX IMVI melanoma = tested on: LOX IMVI melanoma
UACC-257 melanoma = tested on: UACC-257 melanoma
PC-3 prostate = tested on: PC-3 prostate
OVCAR-5 ovarian = tested on: OVCAR-5 ovarian
HT29 colon = tested on: HT29 colon
U251 CNS = tested on: U251 CNS
SNB-19 CNS = tested on: SNB-19 CNS
OVCAR-3 ovarian = tested on: OVCAR-3 ovarian
786-0 renal = tested on: 786-0 renal
CCRF-CEM leukemia = tested on: CCRF-CEM leukemia
MOLT-4 leukemia = tested on: MOLT-4 leukemia
NCI-H460 lung = tested on: NCI-H460 lung
SR leukemia = tested on: SR leukemia
NCI/ADR-RES ovarian = tested on: NCI/ADR-RES ovarian
KM12 colon = tested on: KM12 colon
CAKI-1 renal = tested on: CAKI-1 renal
SNB-75 CNS = tested on: SNB-75 CNS
EKVX NSCLC = tested on: EKVX NSCLC
MALME-3M melanoma = tested on: MALME-3M melanoma
SK-MEL-28 melanoma = tested on: SK-MEL-28 melanoma
MCF7 breast = tested on: MCF7 breast
NCI-H522 lung = tested on: NCI-H522 lung
NCI-H226 lung = tested on: NCI-H226 lung
COLO 205 colon = tested on: COLO 205 colon
SK-MEL-5 melanoma = tested on: SK-MEL-5 melanoma
SN12C renal = tested on: SN12C renal
BT-549 breast = tested on: BT-549 breast
SF-539 CNS = tested on: SF-539 CNS
K-562 leukemia = tested on: K-562 leukemia
HOP-62 NSCLC = tested on: HOP-62 NSCLC
DU-145 prostate = tested on: DU-145 prostate
HCT-116 colon = tested on: HCT-116 colon
M14 melanoma = tested on: M14 melanoma
OVCAR-4 ovarian = tested on: OVCAR-4 ovarian
UACC-62 melanoma = tested on: UACC-62 melanoma

Measured: TGI

CCOC(=O)c1cn2c(ccc3sc4ccccc4c(=O)c32)n1
not listed: M14 melanoma | OVCAR-4 ovarian | UACC-62 melanoma
> 100 µM: all other assays above

O=C1CCCC[C@H]1C(O)CC1CC(=O)N(c2ccccc2)C(=O)C1 (some centres not stated)
not listed: EKVX NSCLC | COLO 205 colon
> 100 µM: all other assays above
